Data: patent US20250340886A1, “INTRACELLULAR KINASE ASSOCIATED WITH RESISTANCE AGAINST ANTI-TUMOUR IMMUNE RESPONSES, AND USES THEREOF” (iOmx Therapeutics AG, priority 2017, published 2025)
Where two headings read alike, the source gives them in different places.

How the values were obtained:
[1] = target: SIK1 (Homo sapiens (Human), UniProt P57059); test: radiometric protein kinase assay (33PanQinase Activity Assay, ProQinase Free Choice Kinase Assay); format: biochemical; settings: read-out: SIK1 IC50 rank
Chain of SIK1 (P57059 whole entry): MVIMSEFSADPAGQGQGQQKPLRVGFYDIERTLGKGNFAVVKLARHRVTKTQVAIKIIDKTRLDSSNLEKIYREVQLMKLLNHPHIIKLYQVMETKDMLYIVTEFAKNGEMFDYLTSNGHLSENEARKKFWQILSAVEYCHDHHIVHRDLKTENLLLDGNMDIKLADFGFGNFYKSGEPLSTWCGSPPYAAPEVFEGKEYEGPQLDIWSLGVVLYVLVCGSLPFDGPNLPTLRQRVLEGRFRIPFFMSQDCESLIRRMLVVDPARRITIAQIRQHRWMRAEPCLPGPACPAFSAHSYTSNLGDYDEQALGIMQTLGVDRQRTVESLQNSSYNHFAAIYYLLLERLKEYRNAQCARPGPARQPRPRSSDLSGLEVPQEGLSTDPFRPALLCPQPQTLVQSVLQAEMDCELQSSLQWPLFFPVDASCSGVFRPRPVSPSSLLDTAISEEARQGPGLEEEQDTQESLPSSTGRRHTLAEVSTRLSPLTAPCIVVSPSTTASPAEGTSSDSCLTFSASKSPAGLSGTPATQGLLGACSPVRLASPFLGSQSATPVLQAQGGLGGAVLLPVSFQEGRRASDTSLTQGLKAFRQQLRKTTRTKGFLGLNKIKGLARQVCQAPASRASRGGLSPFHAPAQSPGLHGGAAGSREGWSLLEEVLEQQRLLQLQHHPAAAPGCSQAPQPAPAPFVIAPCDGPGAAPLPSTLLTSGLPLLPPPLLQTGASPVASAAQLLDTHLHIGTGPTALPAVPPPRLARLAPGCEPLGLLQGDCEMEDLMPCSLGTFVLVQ

[2] = target: SIK2 (Homo sapiens (Human), UniProt Q9H0K1); test: as above; format: biochemical; settings: ATP 1.0 uM, read-out: SIK2 IC50 rank
Chain of SIK2 (Q9H0K1 whole entry): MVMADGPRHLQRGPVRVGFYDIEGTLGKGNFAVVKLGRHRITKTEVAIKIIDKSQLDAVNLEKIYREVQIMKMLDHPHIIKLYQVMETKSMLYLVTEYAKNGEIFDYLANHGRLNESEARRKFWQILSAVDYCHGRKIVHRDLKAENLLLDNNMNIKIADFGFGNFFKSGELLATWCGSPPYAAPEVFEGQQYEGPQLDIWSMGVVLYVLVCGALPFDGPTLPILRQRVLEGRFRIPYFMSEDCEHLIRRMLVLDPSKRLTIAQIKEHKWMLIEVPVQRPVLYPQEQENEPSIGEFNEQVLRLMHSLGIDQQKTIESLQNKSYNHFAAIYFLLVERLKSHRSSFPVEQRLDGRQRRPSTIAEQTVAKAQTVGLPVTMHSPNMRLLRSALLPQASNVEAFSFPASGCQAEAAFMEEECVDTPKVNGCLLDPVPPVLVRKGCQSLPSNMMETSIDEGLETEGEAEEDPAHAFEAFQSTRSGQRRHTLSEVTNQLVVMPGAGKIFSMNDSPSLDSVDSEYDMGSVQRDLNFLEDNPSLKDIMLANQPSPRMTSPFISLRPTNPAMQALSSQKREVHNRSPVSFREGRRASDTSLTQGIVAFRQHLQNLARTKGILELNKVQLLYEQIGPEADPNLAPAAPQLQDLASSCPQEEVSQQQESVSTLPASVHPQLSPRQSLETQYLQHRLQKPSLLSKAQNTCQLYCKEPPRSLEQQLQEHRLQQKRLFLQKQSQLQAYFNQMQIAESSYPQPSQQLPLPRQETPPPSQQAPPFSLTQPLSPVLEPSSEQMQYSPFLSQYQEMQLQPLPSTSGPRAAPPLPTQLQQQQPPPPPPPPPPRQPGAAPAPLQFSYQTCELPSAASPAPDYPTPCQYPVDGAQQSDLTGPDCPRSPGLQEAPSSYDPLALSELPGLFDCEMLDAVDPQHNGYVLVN

[3] = target: SIK3 (Homo sapiens (Human), UniProt Q9Y2K2); test: as above; format: biochemical; settings: read-out: SIK3 IC50 rank
Chain of SIK3 (Q9Y2K2 whole entry): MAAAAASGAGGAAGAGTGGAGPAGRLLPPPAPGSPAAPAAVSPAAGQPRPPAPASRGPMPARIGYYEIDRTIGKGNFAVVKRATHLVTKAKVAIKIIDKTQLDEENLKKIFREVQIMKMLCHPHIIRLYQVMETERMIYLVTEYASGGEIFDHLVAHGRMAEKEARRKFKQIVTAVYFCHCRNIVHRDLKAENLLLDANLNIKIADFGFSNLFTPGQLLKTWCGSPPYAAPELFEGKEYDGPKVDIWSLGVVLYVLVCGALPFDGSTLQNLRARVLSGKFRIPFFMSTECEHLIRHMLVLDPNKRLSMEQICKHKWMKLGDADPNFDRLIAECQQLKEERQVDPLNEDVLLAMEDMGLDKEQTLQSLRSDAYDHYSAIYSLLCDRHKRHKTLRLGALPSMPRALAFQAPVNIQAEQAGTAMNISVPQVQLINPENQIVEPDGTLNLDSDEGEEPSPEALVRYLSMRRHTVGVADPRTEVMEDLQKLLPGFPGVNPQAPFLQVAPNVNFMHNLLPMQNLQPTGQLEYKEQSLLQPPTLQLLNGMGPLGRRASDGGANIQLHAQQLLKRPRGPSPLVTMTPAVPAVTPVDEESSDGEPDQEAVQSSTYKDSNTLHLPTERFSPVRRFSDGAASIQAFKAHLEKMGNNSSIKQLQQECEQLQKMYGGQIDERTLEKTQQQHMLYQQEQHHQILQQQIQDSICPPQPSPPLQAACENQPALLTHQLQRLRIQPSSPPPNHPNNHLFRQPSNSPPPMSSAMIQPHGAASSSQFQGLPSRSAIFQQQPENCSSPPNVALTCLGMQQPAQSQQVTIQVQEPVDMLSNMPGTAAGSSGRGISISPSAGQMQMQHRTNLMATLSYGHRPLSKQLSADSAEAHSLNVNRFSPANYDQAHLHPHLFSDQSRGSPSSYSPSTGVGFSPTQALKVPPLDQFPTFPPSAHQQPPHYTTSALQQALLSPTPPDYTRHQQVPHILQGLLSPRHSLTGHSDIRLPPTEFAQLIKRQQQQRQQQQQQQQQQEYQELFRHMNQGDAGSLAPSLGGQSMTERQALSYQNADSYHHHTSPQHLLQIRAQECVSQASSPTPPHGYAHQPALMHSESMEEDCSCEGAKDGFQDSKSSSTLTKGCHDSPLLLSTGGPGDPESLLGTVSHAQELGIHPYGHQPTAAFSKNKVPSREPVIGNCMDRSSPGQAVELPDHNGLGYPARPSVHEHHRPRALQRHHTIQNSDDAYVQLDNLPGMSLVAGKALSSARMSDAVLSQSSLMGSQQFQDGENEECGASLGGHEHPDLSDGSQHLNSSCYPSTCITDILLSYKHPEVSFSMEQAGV

[4] = target: ABL1 wt (Homo sapiens (Human), UniProt P00519); test: as above; format: biochemical; settings: indicative IC50, Table 4; ATP 0.3 uM; read-out: ABL1 IC50 rank
Chain of ABL1 wt (P00519 whole entry): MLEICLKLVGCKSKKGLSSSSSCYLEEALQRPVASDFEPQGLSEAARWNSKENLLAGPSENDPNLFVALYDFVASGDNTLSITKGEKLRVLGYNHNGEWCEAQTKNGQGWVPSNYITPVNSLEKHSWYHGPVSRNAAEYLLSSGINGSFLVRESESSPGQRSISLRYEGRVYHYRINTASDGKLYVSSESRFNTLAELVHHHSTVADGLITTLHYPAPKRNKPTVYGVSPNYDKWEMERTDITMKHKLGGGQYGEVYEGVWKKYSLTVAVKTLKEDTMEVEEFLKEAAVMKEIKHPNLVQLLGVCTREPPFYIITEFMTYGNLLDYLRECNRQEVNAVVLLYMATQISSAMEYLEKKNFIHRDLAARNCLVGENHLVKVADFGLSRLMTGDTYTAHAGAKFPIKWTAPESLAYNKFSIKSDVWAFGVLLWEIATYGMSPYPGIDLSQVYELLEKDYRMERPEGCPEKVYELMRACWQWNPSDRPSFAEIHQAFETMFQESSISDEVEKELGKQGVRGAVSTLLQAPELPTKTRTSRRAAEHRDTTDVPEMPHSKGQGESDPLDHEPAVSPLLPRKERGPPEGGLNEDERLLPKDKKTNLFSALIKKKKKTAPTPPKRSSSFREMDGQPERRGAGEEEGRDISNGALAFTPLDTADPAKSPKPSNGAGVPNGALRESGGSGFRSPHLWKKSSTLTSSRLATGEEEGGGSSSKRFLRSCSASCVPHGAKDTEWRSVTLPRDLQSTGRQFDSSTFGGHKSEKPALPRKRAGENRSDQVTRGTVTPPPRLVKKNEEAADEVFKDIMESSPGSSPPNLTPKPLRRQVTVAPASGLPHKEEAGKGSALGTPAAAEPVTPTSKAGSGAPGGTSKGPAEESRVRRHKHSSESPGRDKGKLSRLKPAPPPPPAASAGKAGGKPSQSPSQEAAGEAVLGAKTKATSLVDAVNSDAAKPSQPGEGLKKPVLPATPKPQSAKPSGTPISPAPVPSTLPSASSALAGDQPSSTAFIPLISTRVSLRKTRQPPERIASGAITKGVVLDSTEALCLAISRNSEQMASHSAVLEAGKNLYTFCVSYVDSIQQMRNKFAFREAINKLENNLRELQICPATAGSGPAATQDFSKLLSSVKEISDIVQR

[5] = target: SRC (GST-HIS-tag) (Homo sapiens (Human), UniProt P12931); test: as above; format: biochemical; settings: indicative IC50, Table 4; ATP 0.3 uM; read-out: SRC IC50 rank
Chain of SRC (GST-HIS-tag) (P12931 whole entry, looked up): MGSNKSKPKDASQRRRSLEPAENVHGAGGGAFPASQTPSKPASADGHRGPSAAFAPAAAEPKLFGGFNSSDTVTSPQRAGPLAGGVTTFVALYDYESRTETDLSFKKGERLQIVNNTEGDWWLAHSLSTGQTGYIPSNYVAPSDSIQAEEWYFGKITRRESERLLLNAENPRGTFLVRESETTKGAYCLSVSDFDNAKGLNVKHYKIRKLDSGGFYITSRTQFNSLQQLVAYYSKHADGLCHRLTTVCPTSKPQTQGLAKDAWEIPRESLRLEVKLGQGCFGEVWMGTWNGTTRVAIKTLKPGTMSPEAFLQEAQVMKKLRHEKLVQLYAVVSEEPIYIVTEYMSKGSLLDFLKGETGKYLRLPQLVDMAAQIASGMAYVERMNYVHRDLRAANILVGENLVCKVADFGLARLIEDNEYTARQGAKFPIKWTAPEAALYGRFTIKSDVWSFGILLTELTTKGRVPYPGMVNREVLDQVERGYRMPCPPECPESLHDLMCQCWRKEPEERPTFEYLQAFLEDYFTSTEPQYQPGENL

[6] = tested on: PANC-1-luc cells; test: luciferase-based T cell-mediated killing assay of siRNA-transfected PANC-1-luc cells; design: species or system human; settings: absence of T cells (viability setting)
Source text: FIG. 2: Luciferase-based cytotoxicity assay for the assessment of T cell-mediated killing of siRNA transfected PANC-1-luc cells.
The inventors describe herein their surprising finding that SIK3 is a gene involved in tumour cell resistance against a cell-mediated immune response. Such role of SIK3 was first identified by the inventors using a high-throughput screening approach—to identify novel genes involved in mechanisms of tumour resistance towards T cell attack—as adapted and expanded from the screening approach developed and described by Khandelwal et al, 2015 (EMBO Mol Med 7:450). Briefly, using a siRNA library, 2514 genes were individually knocked-down in HLA-A2.1+ luciferase-expressing PANC1 cells (PANC1-luc), a pancreatic adenocarcinoma (PDAC) tumour cell line. Each gene's siRNA-transfected PANC1-luc tumour cells were then co-cultured with magnetically purified CD8+ T cells from an HLA-A2.1+ PDAC-derived tumour infiltrating lymphocyte culture (TIL #1). The impact of siRNA-mediated gene knockdown on TIL-mediated killing of tumour cells was measured using a luciferase-based cytotoxicity assay (cytotoxicity setting). In order to exclude those genes whose knockdown intrinsically affects cell viability, complementary screening was performed without the addition of TIL #1 (viability setting). False positive genes were further excluded using a luciferase-independent viability screen.
The present invention is based on the dramatic impact that inhibition of SIK3 of tumour cells determines a reduction of tumour cell survival after co-culture with a cell-mediated immune response. […]
The PANC1-luc cell line was constructed as follows: PANC-1 cells were acquired from the American Type Cell Culture (ATCC). […] After lysis, luciferase assay buffer was added and immediately the luciferase intensity was measured by using the TECAN-Spark microplate reader.

[7] = indicative IC50, Table 2A, ATP 3.0 uM
[8] = indicative IC50, Table 2A, ATP 1.0 uM
[9] = indicative IC50, Table 4, ATP 3.0 uM
[10] = indicative IC50, Table 4, ATP 1.0 uM

Molecule	IC50 [1, 7] [µM]	IC50 ([2]; indicative IC50, Table 2A) [µM]	IC50 [3, 8] [µM]	IC50 [1, 9] [µM]	IC50 ([2]; indicative IC50, Table 4) [µM]	IC50 [3, 10] [µM]	IC50 [4] [µM]	IC50 [5] [µM]	further results
Cc1nc(Nc2ncc(C(=O)Nc3ccccc3C)s2)cc(N2CCN(CCO)CC2)n1 [Compound A9, 2-((6-(4-(2-hydroxyethyl)piperazin-1-yl)-2-methylpyrimidin-4-yl)amino)-N-(o-tolyl)thiazole-5-carboxamide]	< 0.1	< 0.1	< 0.1	–	–	–	–	–	–
C#Cc1cccc(NC(=O)c2cnc(Nc3cc(N4CCN(CCO)CC4)nc(C)n3)s2)c1 [Compound A4, N-(3-ethynylphenyl)-2-((6-(4-(2-hydroxyethyl)piperazin-1-yl)-2-methylpyrimidin-4-yl)amino)thiazole-5-carboxamide]	> 1	> 0.1	> 1	–	–	–	–	–	–
Cc1nc(NCCO)cc(Nc2ncc(C(=O)Nc3c(C)cccc3Cl)s2)n1 [Compound B7, N-(2-chloro-6-methylphenyl)-2-((6-((2-hydroxyethyl)amino)-2-methylpyrimidin-4-yl)amino)thiazole-5-carboxamide]	–	–	–	< 0.1	< 0.1	< 0.1	< 0.1	< 0.1	–
s3: SIK3 siRNA, sequence GCACUAACCUGCUUGGGUA, Dharmacon D-004779-06 (listed as RNA, chemistry not given here)	–	–	–	–	–	–	–	–	cell viability of tumour cells [6]: slight reduction of cell viability
Cc1nc(Nc2ncc(C(=O)Nc3ccc(F)c(Cl)c3)s2)cc(N2CCN(CCO)CC2)n1 [Compound B9]	–	–	–	–	> 0.5	–	–	–	IC50 [1]: > 5 µM; IC50 [3]: > 5 µM
s1: SIK3 siRNA, sequence GCGCCAGGCUUUAUCUUAU, Dharmacon D-004779-01 (listed as RNA, chemistry not given here)	–	–	–	–	–	–	–	–	cell viability of tumour cells [6]: slight reduction of cell viability
Cc1nc(Nc2ncc(C(=O)Nc3c(F)cccc3Br)s2)cc(N2CCN(CCO)CC2)n1 [Compound A3, N-(2-bromo-6-fluorophenyl)-2-((6-(4-(2-hydroxyethyl)piperazin-1-yl)-2-methylpyrimidin-4-yl)amino)thiazole-5-carboxamide]	< 0.1	< 0.1	< 0.1	–	–	–	–	–	–
Cc1nc(Nc2ncc(C(=O)Nc3c(Br)cccc3Br)s2)cc(N2CCN(CCO)CC2)n1 [Compound B2, N-(2,6-dibromophenyl)-2-((6-(4-(2-hydroxyethyl)piperazin-1-yl)-2-methylpyrimidin-4-yl)amino)thiazole-5-carboxamide]	–	–	–	< 0.1	< 0.1	> 0.1	< 0.1	< 0.1	–
Cc1nc(Nc2ncc(C(=O)Nc3c(F)cccc3F)s2)cc(N2CCN(CCO)CC2)n1 [Compound A2, N-(2,6-difluorophenyl)-2-((6-{4-(2-hydroxyethyl)piperazin-1-yl)-2-methylpyrimidin-4-yl)amino)thiazole-5-carboxamide]	< 0.1	< 0.1	< 0.1	–	–	–	–	–	–
Cc1nc(Nc2ncc(C(=O)Nc3ccc(F)cc3)s2)cc(N2CCN(CCO)CC2)n1 [Compound A5, N-(4-fluorophenyl)-2-((6-(4-(2-hydroxyethyl)piperazin-1-yl)-2-methylpyrimidin-4-yl)amino)thiazole-5-carboxamide]	> 0.1	> 0.1	> 1	–	–	–	–	–	–
Cc1nc(Nc2ncc(C(=O)Nc3c(C)cccc3C)s2)cc(N2CCN(CCO)CC2)n1 [Compound A12, N-(2,6-dimethylphenyl)-2-((6-(4-(2-hydroxyethyl)piperazin-1-yl)-2-methylpyrimidin-4-yl)amino)thiazole-5-carboxamide]	< 0.1	< 0.1	< 0.1	–	–	–	–	–	–
COc1c(F)cccc1NC(=O)c1cnc(Nc2cc(N3CCN(CCO)CC3)nc(C)n2)s1 [Compound B4, N-(3-fluoro-2-methoxyphenyl)-2-((6-(4-(2-hydroxyethyl)piperazin-1-yl)-2-methylpyrimidin-4-yl)amino)thiazole-5-carboxamide]	–	–	–	> 0.1	> 0.1	> 1	< 0.1	< 0.1	–
Cc1nc(Nc2ncc(C(=O)Nc3c(Cl)cccc3Br)s2)cc(N2CCN(CCO)CC2)n1 [Compound B1, N-(2-bromo-6-chlorophenyl)-2-((6-(4-(2-hydroxyethyl)piperazin-1-yl)-2-methylpyrimidin-4-yl)amino)thiazole-5-carboxamide]	–	–	–	< 0.1	< 0.1	< 0.1	< 0.1	< 0.1	–
Cc1nc(Nc2ncc(C(=O)Nc3ccc(Br)cc3F)s2)cc(N2CCN(CCO)CC2)n1 [Compound A7, N-(4-bromo-6-fluorophenyl)-2-((6-(4-(2-hydroxyethyl)piperazin-1-yl)-2-methylpyrimidin-4-yl)amino)thiazole-5-carboxamide]	< 0.1	> 0.1	> 0.5	–	–	–	–	–	–
s2: SIK3 siRNA, sequence GAACAGCGACGAUGCUUAU, Dharmacon D-004779-05 (listed as RNA, chemistry not given here)	–	–	–	–	–	–	–	–	cell viability of tumour cells [6]: slight reduction of cell viability
Cc1nc(Nc2ncc(C(=O)Nc3ccccc3Cl)s2)cc(N2CCN(CCO)CC2)n1 [Compound A10, N-(2-chlorophenyl)-2-((6-(4-(2-hydroxyethyl)piperazin-1-yl)-2-methylpyrimidin-4-yl)amino)thiazole-5-carboxamide]	< 0.1	< 0.1	> 0.1	–	–	–	–	–	–
Cc1nc(Nc2ncc(C(=O)Nc3c(Cl)cccc3Cl)s2)cc(N2CCN(CCO)CC2)n1 [Compound A13, N-(2,6-dichlorophenyl)-2-((6-(4-(2-hydroxyethyl)piperazin-1-yl)-2-methylpyrimidin-4-yl)amino)thiazole-5-carboxamide]	< 0.1	< 0.1	< 0.1	–	–	–	–	–	–
CC(=O)N1CCN(c2cc(Nc3ncc(C(=O)Nc4c(C)cccc4Cl)s3)nc(C)n2)CC1 [Compound B6, 2-((6-(4-acetylpiperazin-1-yl)-2-methylpyrimidin-4-yl)amino)-N-(2-chloro-6-methylphenyl)thiazole-5-carboxamide]	–	–	–	< 0.1	< 0.1	< 0.1	< 0.1	< 0.1	–
Cc1nc(Nc2ncc(C(=O)Nc3c(C)cccc3Cl)s2)cc(N2CCN(C)CC2)n1 [Compound B5, N-(2-chloro-6-methylphenyl)-2-((2-methyl-6-(4-methylpiperazin-1-yl)pyrimidin-4-yl)amino)thiazole-5-carboxamide]	–	–	–	< 0.1	< 0.1	< 0.1	< 0.1	< 0.1	–
Cc1nc(Nc2ncc(C(=O)Nc3c(F)cccc3Cl)s2)cc(N2CCN(CCO)CC2)n1 [Compound A1, N-(2-chloro-6-fluorophenyl)-2-((6-(4-(2-hydroxyethyl)piperazin-1-yl)-2-methylpyrimidin-4-yl)amino)thiazole-5-carboxamide]	< 0.1	< 0.1	< 0.1	–	–	–	–	–	–
